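48-hour exposure; five concentrations; linearly interpolated endpoints. GI50 is the concentration that inhibits growth by half. At the TGI there is no net growth.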
Columns and labels:
Experiment in all cases: growth of human tumour cells (NCI), 48 h; in the data active = GI50 below about 0.43 µM; inactive = the rest
SK-MEL-2 melanoma = test system: SK-MEL-2 melanoma
SF-268 CNS = test system: SF-268 CNS
HL-60(TB) leukemia = test system: HL-60(TB) leukemia
SR leukemia = test system: SR leukemia
HCT-15 colon = test system: HCT-15 colon
MDA-MB-435 = test system: MDA-MB-435
A498 renal = test system: A498 renal
SNB-75 CNS = test system: SNB-75 CNS
HOP-92 NSCLC = test system: HOP-92 NSCLC
RPMI-8226 leukemia = test system: RPMI-8226 leukemia
TK-10 renal = test system: TK-10 renal
NCI-H460 lung = test system: NCI-H460 lung
SK-MEL-5 melanoma = test system: SK-MEL-5 melanoma
UACC-62 melanoma = test system: UACC-62 melanoma
UO-31 renal = test system: UO-31 renal
CCRF-CEM leukemia = test system: CCRF-CEM leukemia
MDA-MB-231 breast = test system: MDA-MB-231 breast
SF-539 CNS = test system: SF-539 CNS
SF-295 CNS = test system: SF-295 CNS
MCF7 breast = test system: MCF7 breast
IGROV1 ovarian = test system: IGROV1 ovarian
HCC-2998 colon = test system: HCC-2998 colon
OVCAR-5 ovarian = test system: OVCAR-5 ovarian
LOX IMVI melanoma = test system: LOX IMVI melanoma
NCI-H226 lung = test system: NCI-H226 lung
A549 NSCLC = test system: A549 NSCLC
NCI/ADR-RES ovarian = test system: NCI/ADR-RES ovarian
OVCAR-3 ovarian = test system: OVCAR-3 ovarian
EKVX NSCLC = test system: EKVX NSCLC
HS 578T breast = test system: HS 578T breast
COLO 205 colon = test system: COLO 205 colon
CAKI-1 renal = test system: CAKI-1 renal
M14 melanoma = test system: M14 melanoma
U251 CNS = test system: U251 CNS
SK-MEL-28 melanoma = test system: SK-MEL-28 melanoma
SN12C renal = test system: SN12C renal
HCT-116 colon = test system: HCT-116 colon
MOLT-4 leukemia = test system: MOLT-4 leukemia
K-562 leukemia = test system: K-562 leukemia
NCI-H23 lung = test system: NCI-H23 lung
HT29 colon = test system: HT29 colon
SW-620 colon = test system: SW-620 colon
ACHN renal = test system: ACHN renal
BT-549 breast = test system: BT-549 breast
OVCAR-4 ovarian = test system: OVCAR-4 ovarian
DU-145 prostate = test system: DU-145 prostate
HOP-62 NSCLC = test system: HOP-62 NSCLC
SK-OV-3 ovarian = test system: SK-OV-3 ovarian
SNB-19 CNS = test system: SNB-19 CNS
RXF 393 renal = test system: RXF 393 renal
786-0 renal = test system: 786-0 renal
T-47D breast = test system: T-47D breast
PC-3 prostate = test system: PC-3 prostate
NCI-H522 lung = test system: NCI-H522 lung
KM12 colon = test system: KM12 colon
OVCAR-8 ovarian = test system: OVCAR-8 ovarian
UACC-257 melanoma = test system: UACC-257 melanoma

Clc1nc(Cl)c2ncn(CC#CCn3cnc4c(Cl)nc(Cl)nc43)c2n1
active: GI50 (SR leukemia) 0.38 µM
3.42 µM: TGI (HCT-116 colon)
6.2 µM: TGI (EKVX NSCLC)
3.51 µM: TGI (NCI-H522 lung)
6.79 µM: TGI (HS 578T breast)
3.23 µM: TGI (DU-145 prostate)
> 100 µM: TGI (HL-60(TB) leukemia)
3.71 µM: TGI (OVCAR-3 ovarian)
2.19 µM: TGI (SR leukemia)
11.3 µM: TGI (BT-549 breast)
2.98 µM: TGI (RXF 393 renal)
5.96 µM: TGI (MCF7 breast)
11.4 µM: TGI (786-0 renal)
5.55 µM: TGI (SK-MEL-2 melanoma)
3.36 µM: TGI (COLO 205 colon) | TGI (OVCAR-4 ovarian)
7.76 µM: TGI (SNB-75 CNS)
23.3 µM: TGI (SK-MEL-5 melanoma)
6.86 µM: TGI (SF-539 CNS)
3.31 µM: TGI (UO-31 renal)
9.32 µM: TGI (A549 NSCLC)
7.94 µM: TGI (NCI-H226 lung)
3.37 µM: TGI (IGROV1 ovarian)
4.25 µM: TGI (SNB-19 CNS)
inactive: GI50 (SK-MEL-2 melanoma) 2.53 µM | GI50 (SF-268 CNS) 1.89 µM | GI50 (HL-60(TB) leukemia) 2.41 µM | GI50 (HCT-15 colon) 1.99 µM | GI50 (MDA-MB-435) 3.25 µM | GI50 (A498 renal) 10.6 µM | GI50 (SNB-75 CNS) 2.87 µM | GI50 (HOP-92 NSCLC) 2.21 µM | GI50 (RPMI-8226 leukemia) 2.09 µM | GI50 (TK-10 renal) 5.51 µM | GI50 (NCI-H460 lung) 3.41 µM | GI50 (SK-MEL-5 melanoma) 11.1 µM | GI50 (UACC-62 melanoma) 1.96 µM | GI50 (UO-31 renal) 1.67 µM | GI50 (CCRF-CEM leukemia) 1.9 µM | GI50 (MDA-MB-231 breast) 2.42 µM | GI50 (SF-539 CNS) 2.56 µM | GI50 (SF-295 CNS) 6.69 µM | GI50 (MCF7 breast) 2.18 µM | GI50 (IGROV1 ovarian) 1.54 µM | GI50 (HCC-2998 colon) 2.08 µM | GI50 (OVCAR-5 ovarian) 10.5 µM | GI50 (LOX IMVI melanoma) 1.86 µM | GI50 (NCI-H226 lung) 3.18 µM | GI50 (A549 NSCLC) 2.49 µM | GI50 (NCI/ADR-RES ovarian) 3.73 µM | GI50 (OVCAR-3 ovarian) 2.06 µM | GI50 (EKVX NSCLC) 2.6 µM | GI50 (HS 578T breast) 2.49 µM | GI50 (COLO 205 colon) 1.7 µM | GI50 (CAKI-1 renal) 2.05 µM | GI50 (M14 melanoma) 2.6 µM | GI50 (U251 CNS) 2.28 µM | GI50 (SK-MEL-28 melanoma) 1.82 µM | GI50 (SN12C renal) 2.66 µM | GI50 (HCT-116 colon) 1.78 µM | GI50 (MOLT-4 leukemia) 0.554 µM | GI50 (K-562 leukemia) 2.39 µM | GI50 (NCI-H23 lung) 3.05 µM | GI50 (HT29 colon) 1.89 µM | GI50 (SW-620 colon) 1.84 µM | GI50 (ACHN renal) 1.9 µM | GI50 (BT-549 breast) 3.3 µM | GI50 (OVCAR-4 ovarian) 1.89 µM | GI50 (DU-145 prostate) 1.78 µM | GI50 (HOP-62 NSCLC) 1.9 µM | GI50 (SK-OV-3 ovarian) 10.5 µM | GI50 (SNB-19 CNS) 2.01 µM | GI50 (RXF 393 renal) 1.35 µM | GI50 (786-0 renal) 3.46 µM | GI50 (T-47D breast) 1.85 µM | GI50 (PC-3 prostate) 3.61 µM | GI50 (NCI-H522 lung) 1.56 µM
3.69 µM: TGI (HT29 colon)
6.5 µM: TGI (SN12C renal)
3.32 µM: TGI (ACHN renal)
8.56 µM: TGI (MDA-MB-435)
24.1 µM: TGI (NCI/ADR-RES ovarian)
20.4 µM: TGI (SF-295 CNS)
3.39 µM: TGI (SK-MEL-28 melanoma)
4.75 µM: TGI (U251 CNS)
22.5 µM: TGI (SK-OV-3 ovarian)
4.05 µM: TGI (HCC-2998 colon)
3.46 µM: TGI (SW-620 colon)
3.41 µM: TGI (LOX IMVI melanoma)
3.91 µM: TGI (CAKI-1 renal)
17.8 µM: TGI (TK-10 renal)
8.52 µM: TGI (NCI-H23 lung)
4.13 µM: TGI (T-47D breast)
5.07 µM: TGI (RPMI-8226 leukemia)
12.4 µM: TGI (NCI-H460 lung)
3.89 µM: TGI (CCRF-CEM leukemia) | TGI (HOP-62 NSCLC)
4.93 µM: TGI (MDA-MB-231 breast)
4.02 µM: TGI (HOP-92 NSCLC)
5.62 µM: TGI (M14 melanoma)
3.76 µM: TGI (SF-268 CNS)
4.06 µM: TGI (HCT-15 colon)
23 µM: TGI (A498 renal)
2.48 µM: TGI (MOLT-4 leukemia)
11.1 µM: TGI (PC-3 prostate)
3.66 µM: TGI (UACC-62 melanoma)
25.6 µM: TGI (OVCAR-5 ovarian)
6.24 µM: TGI (K-562 leukemia)

Cc1nc2ccccn2c1NC(=O)NNC(=S)Nc1ccc(Cl)cc1
> 100 µM: TGI (SK-MEL-2 melanoma) | TGI (SF-268 CNS) | TGI (HL-60(TB) leukemia) | TGI (SR leukemia) | TGI (HCT-15 colon) | TGI (MDA-MB-435) | TGI (A498 renal) | TGI (SNB-75 CNS) | TGI (HOP-92 NSCLC) | TGI (RPMI-8226 leukemia) | TGI (TK-10 renal) | TGI (NCI-H460 lung) | TGI (SK-MEL-5 melanoma) | TGI (UACC-62 melanoma) | TGI (UO-31 renal) | TGI (CCRF-CEM leukemia) | TGI (MDA-MB-231 breast) | TGI (SF-539 CNS) | TGI (SF-295 CNS) | TGI (MCF7 breast) | TGI (IGROV1 ovarian) | TGI (HCC-2998 colon) | TGI (OVCAR-5 ovarian) | TGI (LOX IMVI melanoma) | TGI (NCI-H226 lung) | TGI (A549 NSCLC) | TGI (NCI/ADR-RES ovarian) | TGI (OVCAR-3 ovarian) | TGI (KM12 colon) | TGI (EKVX NSCLC) | TGI (HS 578T breast) | TGI (COLO 205 colon) | TGI (CAKI-1 renal) | TGI (M14 melanoma) | TGI (U251 CNS) | TGI (SK-MEL-28 melanoma) | TGI (SN12C renal) | TGI (HCT-116 colon) | TGI (MOLT-4 leukemia) | TGI (K-562 leukemia) | TGI (OVCAR-8 ovarian) | TGI (UACC-257 melanoma) | TGI (HT29 colon) | TGI (SW-620 colon) | TGI (ACHN renal) | TGI (BT-549 breast) | TGI (OVCAR-4 ovarian) | TGI (DU-145 prostate) | TGI (HOP-62 NSCLC) | TGI (SK-OV-3 ovarian) | TGI (SNB-19 CNS) | TGI (RXF 393 renal) | TGI (786-0 renal) | TGI (T-47D breast) | TGI (PC-3 prostate) | TGI (NCI-H522 lung)
inactive: GI50 (SK-MEL-2 melanoma) > 100 µM | GI50 (SF-268 CNS) > 100 µM | GI50 (HL-60(TB) leukemia) > 100 µM | GI50 (SR leukemia) 95.7 µM | GI50 (HCT-15 colon) > 100 µM | GI50 (MDA-MB-435) > 100 µM | GI50 (A498 renal) > 100 µM | GI50 (SNB-75 CNS) > 100 µM | GI50 (HOP-92 NSCLC) > 100 µM | GI50 (RPMI-8226 leukemia) > 100 µM | GI50 (TK-10 renal) > 100 µM | GI50 (NCI-H460 lung) > 100 µM | GI50 (SK-MEL-5 melanoma) > 100 µM | GI50 (UACC-62 melanoma) > 100 µM | GI50 (UO-31 renal) > 100 µM | GI50 (CCRF-CEM leukemia) > 100 µM | GI50 (MDA-MB-231 breast) 67.8 µM | GI50 (SF-539 CNS) > 100 µM | GI50 (SF-295 CNS) > 100 µM | GI50 (MCF7 breast) > 100 µM | GI50 (IGROV1 ovarian) > 100 µM | GI50 (HCC-2998 colon) > 100 µM | GI50 (OVCAR-5 ovarian) > 100 µM | GI50 (LOX IMVI melanoma) > 100 µM | GI50 (NCI-H226 lung) > 100 µM | GI50 (A549 NSCLC) > 100 µM | GI50 (NCI/ADR-RES ovarian) > 100 µM | GI50 (OVCAR-3 ovarian) > 100 µM | GI50 (KM12 colon) > 100 µM | GI50 (EKVX NSCLC) > 100 µM | GI50 (HS 578T breast) > 100 µM | GI50 (COLO 205 colon) > 100 µM | GI50 (CAKI-1 renal) > 100 µM | GI50 (M14 melanoma) > 100 µM | GI50 (U251 CNS) > 100 µM | GI50 (SK-MEL-28 melanoma) > 100 µM | GI50 (SN12C renal) > 100 µM | GI50 (HCT-116 colon) > 100 µM | GI50 (MOLT-4 leukemia) > 100 µM | GI50 (K-562 leukemia) > 100 µM | GI50 (OVCAR-8 ovarian) > 100 µM | GI50 (UACC-257 melanoma) > 100 µM | GI50 (HT29 colon) > 100 µM | GI50 (SW-620 colon) > 100 µM | GI50 (ACHN renal) > 100 µM | GI50 (BT-549 breast) > 100 µM | GI50 (OVCAR-4 ovarian) > 100 µM | GI50 (DU-145 prostate) > 100 µM | GI50 (HOP-62 NSCLC) > 100 µM | GI50 (SK-OV-3 ovarian) > 100 µM | GI50 (SNB-19 CNS) > 100 µM | GI50 (RXF 393 renal) > 100 µM | GI50 (786-0 renal) > 100 µM | GI50 (T-47D breast) > 100 µM | GI50 (PC-3 prostate) > 100 µM | GI50 (NCI-H522 lung) > 100 µM

Reference: PubChem BioAssay (NCI)
